These results are taken from patent publication US9527867B2, “Antibacterial biaromatic derivatives” (Actelion Pharmaceuticals Ltd., priority 2013, dated 2016).

What all share (assay): Bacterial growth minimal inhibitory concentration (broth microdilution, CLSI M7-A7)
Assay type in all cases: cell-based
A general note: In broth dilution the organism is exposed to a series of concentrations in liquid medium.

Assay [1] concerns Staphylococcus aureus ATCC29213. Particulars: methicillin-sensitive and quinolone-sensitive strain; for MIC for S. aureus ATCC29213: cation-adjusted Mueller-Hinton Broth; for MIC: Staphylococcus aureus, ATCC29213, cation-adjusted Mueller-Hinton Broth, read-out: MIC for S. aureus ATCC29213. The procedure: (§1) Minimal Inhibitory Concentrations (MICs; mg/L) were determined in cation-adjusted Mueller-Hinton Broth by a microdilution method following the description given in “Methods for Dilution Antimicrobial Susceptibility Tests for Bacteria that Grow Aerobically”, Approved standard, 7th ed., Clinical and Laboratory Standards Institute (CLSI) Document M7-A7, Wayne, Pa., USA (2006).
(§2) All Example compounds were tested against several Gram positive and Gram negative bacteria. […] Staphylococcus aureus A798, Enterococcus faecium A949 and Acinetobacter baumannii T6474 are multiply-resistant strains (in particular quinolone-resistant), while Moraxella catarrhalis A894 is a quinolone-sensitive strain and Staphylococcus aureus ATCC29213 is a methicillin-sensitive and quinolone-sensitive strain.

In assay [2] the test system is Acinetobacter baumannii T6474. The settings on record: multiply-resistant strain (in particular quinolone-resistant); for MIC for A. baumannii T6474: cation-adjusted Mueller-Hinton Broth; for MIC: Acinetobacter baumannii, T6474, cation-adjusted Mueller-Hinton Broth. As to the method:
as §1, §2

In assay [3] the test system is Staphylococcus aureus A798. The settings on record: multiply-resistant strain (in particular quinolone-resistant); for MIC for S. aureus A798: cation-adjusted Mueller-Hinton Broth; for MIC: Staphylococcus aureus, A798, cation-adjusted Mueller-Hinton Broth, read-out: MIC for S. aureus A798. As to the method:
as §1, §2

For assay [4], the system named is Moraxella catarrhalis A894. The settings on record: quinolone-sensitive strain; for MIC for M. catarrhalis A894: cation-adjusted Mueller-Hinton Broth; for MIC: Moraxella catarrhalis, A894, cation-adjusted Mueller-Hinton Broth. The procedure: as §1, §2
In assay [5] the test system is Enterococcus faecium A949. Particulars: multiply-resistant strain (in particular quinolone-resistant); for MIC for E. faecium A949: cation-adjusted Mueller-Hinton Broth; for MIC: Enterococcus faecium, A949, cation-adjusted Mueller-Hinton Broth, read-out: MIC for E. faecium A949. The procedure:
as §1, §2

Converted amounts (≈) assume the structure as drawn.

The term MIC denotes the lowest concentration found to suppress growth.

On to “6-(5-{2-[(3′-methoxy-biphenyl-3-ylmethyl)-amino]-ethyl}-2-oxo-oxazol-3-yl)-4H-pyrido[3,2-b][1,4]oxazin-3-one [Example 34]”, for which the “MIC for S. aureus ATCC29213” value in assay [1] worked out at 0.125 µg/mL. Also, the “MIC for A. baumannii T6474” value in assay [2] amounted to 0.25 µg/mL. In addition, the “MIC for S. aureus A798” value in assay [3] is 0.125 µg/mL. Further, the “MIC for M. catarrhalis A894” value in assay [4] is on record as “≦0.016 mg/L”. Besides, in assay [5], the “MIC for E. faecium A949” value came out at 1 µg/mL.
“6-((R)-5-{2-[3-(6-methoxy-pyridin-2-yl)-benzylamino]-ethyl}-2-oxo-oxazolidin-3-yl)-4H-pyrido[3,2-b][1,4]oxazin-3-one [Example 31]”: in assay [1], the “MIC for S. aureus ATCC29213” value is 0.25 µg/mL. Besides, in assay [2], the “MIC for A. baumannii T6474” value was 0.5 µg/mL. Further, in assay [3], the “MIC for S. aureus A798” value was 0.25 µg/mL. In addition, the “MIC for M. catarrhalis A894” value in assay [4] is “≦0.016 mg/L”. In addition, the “MIC for E. faecium A949” value in assay [5] worked out at 2 µg/mL.
As to `O=C1COc2ccc(N3C[C@H](CCNCc4cccc(-c5cccc(N6CCC(O)C6)n5)c4)OC3=O)nc2N1` (mixture of isomers) [Example 57, 6-[(S)-5-(2-{3-[6-((RS)-3-hydroxy-pyrrolidin-1-yl)-pyridin-2-yl]-benzylamino}-ethyl)-2-oxo-oxazolidin-3-yl]-4H-pyrido[3,2-b][1,4]oxazin-3-one], the MIC turned out to be 2 µg/mL in assay [1]; 2 µg/mL in assay [2]; 1 µg/mL in assay [3]; 0.25 µg/mL in assay [4]; 8 µg/mL in assay [5].
As for `O=C1COc2ccc(N3C[C@H](CCNCc4cccc(-c5cccc(OC[C@@H]6C[C@@H](O)[C@@H](O)C6)n5)c4)OC3=O)nc2N1` (racemic) [Example 69, 6-[(S)-5-(2-{3-[6-((1rs,3R,4S)-3,4-dihydroxy-cyclopentylmethoxy)-pyridin-2-yl]-benzylamino}-ethyl)-2-oxo-oxazolidin-3-yl]-4H-pyrido[3,2-b][1,4]oxazin-3-one], the “MIC for S. aureus ATCC29213” value in assay [1] was 1 µg/mL. Also, the “MIC for A. baumannii T6474” value in assay [2] amounted to 1 µg/mL. Moreover, in assay [3], the “MIC for S. aureus A798” value came to 0.25 µg/mL. Also, the “MIC for M. catarrhalis A894” value in assay [4] is 0.063 µg/mL. For the same compound, the “MIC for E. faecium A949” value in assay [5] is 8 µg/mL.
Turning to `COc1cccc(-c2cccc(CNCC[C@@H]3CN(c4ccc5c(c4)NC(=O)CS5)C(=O)O3)c2)c1` [Example 1, 6-((R)-5-{2-[(3′-methoxy-biphenyl-3-ylmethyl)-amino]-ethyl}-2-oxo-oxazolidin-3-yl)-4H-benzo[1,4]thiazin-3-one], the MIC in assay [1] stood at 0.25 µg/mL (≈ 0.511 µM); in assay [2], 0.5 µg/mL (≈ 1.02 µM); in assay [3], 0.25 µg/mL (≈ 0.511 µM); in assay [4], 0.031 µg/mL (≈ 0.0633 µM); in assay [5], 2 µg/mL (≈ 4.08 µM).
Turning to `COc1cc(C#N)cc(-c2cccc(CNCC[C@@H]3CN(c4ccc5c(c4)NC(=O)CS5)C(=O)O3)c2)n1` [Example 2, 2-methoxy-6-[3-({2-[(R)-2-oxo-3-(3-oxo-3,4-dihydro-2H-benzo[1,4]thiazin-6-yl)-oxazolidin-5-yl]-ethylamino}-methyl)-phenyl]-isonicotinonitrile], the MIC in assay [1] is no more than 0.016 µg/mL; in assay [2], 0.25 µg/mL (≈ 0.485 µM); in assay [3] it was no more than 0.016 µg/mL; in assay [4] it was no more than 0.016 µg/mL; in assay [5], 0.5 µg/mL (≈ 0.97 µM).
In the case of `N#Cc1cccc(-c2cccc(CNCC[C@H]3CN(c4ccc5c(c4)NC(=O)CS5)C(=O)O3)c2)c1` [Example 3, 3′-({2-[(S)-2-oxo-3-(3-oxo-3,4-dihydro-2H-benzo[1,4]thiazin-6-yl)-oxazolidin-5-yl]-ethylamino}-methyl)-biphenyl-3-carbonitrile], the minimal inhibitory concentration (MIC) in assay [1] was 0.063 µg/mL (≈ 0.13 µM); in assay [2], 0.125 µg/mL (≈ 0.258 µM); in assay [3], 0.063 µg/mL (≈ 0.13 µM); in assay [4], no more than 0.016 µg/mL; in assay [5], 0.5 µg/mL (≈ 1.03 µM).
For the compound `COc1cccc(-c2cccc(CNCC[C@H]3CN(c4ccc5c(n4)NC(=O)CO5)C(=O)O3)c2)c1` [Example 4, 6-((S)-5-{2-[(3′-methoxy-biphenyl-3-ylmethyl)-amino]-ethyl}-2-oxo-oxazolidin-3-yl)-4H-pyrido[3,2-b][1,4]oxazin-3-one], the minimum inhibitory concentration (MIC) in assay [1] was 0.25 µg/mL (≈ 0.527 µM); in assay [2], 0.5 µg/mL (≈ 1.05 µM); in assay [3], 0.25 µg/mL (≈ 0.527 µM); in assay [4] it was 0.031 µg/mL (≈ 0.0653 µM); in assay [5] it was 4 µg/mL (≈ 8.43 µM).
As to `N#Cc1cccc(-c2cccc(CNCC[C@@H]3CN(c4ccc5c(c4)NC(=O)CS5)C(=O)O3)c2)c1` [Example 5, 3′-({2-[(R)-2-oxo-3-(3-oxo-3,4-dihydro-2H-benzo[1,4]thiazin-6-yl)-oxazolidin-5-yl]-ethylamino}-methyl)-biphenyl-3-carbonitrile], the minimal inhibitory concentration (MIC) in assay [1] was 0.063 µg/mL (≈ 0.13 µM); in assay [2] it was 0.125 µg/mL (≈ 0.258 µM); in assay [3] it was 0.063 µg/mL (≈ 0.13 µM); in assay [4], no more than 0.016 µg/mL; in assay [5], 1 µg/mL (≈ 2.06 µM).
`COc1ccc(-c2cccc(CNCC[C@@H]3CN(c4ccc5c(c4)NC(=O)CS5)C(=O)O3)c2)cc1` [Example 6, 6-((R)-5-{2-[(4′-methoxy-biphenyl-3-ylmethyl)-amino]-ethyl}-2-oxo-oxazolidin-3-yl)-4H-benzo[1,4]thiazin-3-one]: the MIC in assay [1] worked out at 1 µg/mL (≈ 2.04 µM); in assay [2], 4 µg/mL (≈ 8.17 µM); in assay [3] it was 1 µg/mL (≈ 2.04 µM); in assay [4], 0.063 µg/mL (≈ 0.129 µM); in assay [5] it was 4 µg/mL (≈ 8.17 µM).
As for `COc1cc(-c2cccc(CNCC[C@@H]3CN(c4ccc5c(c4)NC(=O)CS5)C(=O)O3)c2)ccc1O` [Example 7, 6-((R)-5-{2-[(4′-hydroxy-3′-methoxy-biphenyl-3-ylmethyl)-amino]-ethyl}-2-oxo-oxazolidin-3-yl)-4H-benzo[1,4]thiazin-3-one], the minimum inhibitory concentration (MIC) was 0.5 µg/mL (≈ 0.989 µM) in assay [1]; 1 µg/mL (≈ 1.98 µM) in assay [2]; 0.5 µg/mL (≈ 0.989 µM) in assay [3]; 0.063 µg/mL (≈ 0.125 µM) in assay [4]; 4 µg/mL (≈ 7.91 µM) in assay [5].
For `COc1ccc(C#N)c(-c2cccc(CNCC[C@@H]3CN(c4ccc5c(c4)NC(=O)CS5)C(=O)O3)c2)c1` [Example 8, 5-methoxy-3′-({2-[(R)-2-oxo-3-(3-oxo-3,4-dihydro-2H-benzo[1,4]thiazin-6-yl)-oxazolidin-5-yl]-ethylamino}-methyl)-biphenyl-2-carbonitrile], the minimal inhibitory concentration (MIC) is 0.063 µg/mL (≈ 0.122 µM) in assay [1]; 0.25 µg/mL (≈ 0.486 µM) in assay [2]; 0.063 µg/mL (≈ 0.122 µM) in assay [3]; no more than 0.016 µg/mL in assay [4]; 1 µg/mL (≈ 1.94 µM) in assay [5].
For `COc1cc(C#N)cc(-c2cccc(CNCC[C@@H]3CN(c4ccc5c(c4)NC(=O)CS5)C(=O)O3)c2)c1` [Example 9, 5-methoxy-3′-({2-[(R)-2-oxo-3-(3-oxo-3,4-dihydro-2H-benzo[1,4]thiazin-6-yl)-oxazolidin-5-yl]-ethylamino}-methyl)-biphenyl-3-carbonitrile], the MIC is 0.031 µg/mL (≈ 0.0602 µM) in assay [1]; 0.25 µg/mL (≈ 0.486 µM) in assay [2]; 0.031 µg/mL (≈ 0.0602 µM) in assay [3]; no more than 0.016 µg/mL in assay [4]; 1 µg/mL (≈ 1.94 µM) in assay [5].
As to `COc1cc(O)cc(-c2cccc(CNCC[C@@H]3CN(c4ccc5c(c4)NC(=O)CS5)C(=O)O3)c2)c1` [Example 10, 6-((R)-5-{2-[(3′-hydroxy-5′-methoxy-biphenyl-3-ylmethyl)-amino]-ethyl}-2-oxo-oxazolidin-3-yl)-4H-benzo[1,4]thiazin-3-one], the minimal inhibitory concentration (MIC) in assay [1] was 0.5 µg/mL (≈ 0.989 µM); in assay [2], 0.5 µg/mL (≈ 0.989 µM); in assay [3], 0.5 µg/mL (≈ 0.989 µM); in assay [4] it was no more than 0.016 µg/mL; in assay [5], 8 µg/mL (≈ 15.8 µM).
On to `COc1cccc(-c2cc(CNCC[C@@H]3CN(c4ccc5c(c4)NC(=O)CS5)C(=O)O3)ccc2F)c1` [Example 11, 6-((R)-5-{2-[(6-fluoro-3′-methoxy-biphenyl-3-ylmethyl)-amino]-ethyl}-2-oxo-oxazolidin-3-yl)-4H-benzo[1,4]thiazin-3-one], for which the MIC was 1 µg/mL (≈ 1.97 µM) in assay [1]; 2 µg/mL (≈ 3.94 µM) in assay [2]; 1 µg/mL (≈ 1.97 µM) in assay [3]; 0.125 µg/mL (≈ 0.246 µM) in assay [4]; 8 µg/mL (≈ 15.8 µM) in assay [5].
Turning to `COc1cccc(-c2cccc(CNCC[C@@H]3CN(c4ccc5c(c4)NC(=O)CS5)C(=O)O3)c2F)c1` [Example 12, 6-((R)-5-{2-[(2-fluoro-3′-methoxy-biphenyl-3-ylmethyl)-amino]-ethyl}-2-oxo-oxazolidin-3-yl)-4H-benzo[1,4]thiazin-3-one], the MIC is 0.5 µg/mL (≈ 0.985 µM) in assay [1]; 2 µg/mL (≈ 3.94 µM) in assay [2]; 0.5 µg/mL (≈ 0.985 µM) in assay [3]; 0.063 µg/mL (≈ 0.124 µM) in assay [4]; 2 µg/mL (≈ 3.94 µM) in assay [5].
On to `COc1cncc(-c2cccc(CNCC[C@@H]3CN(c4ccc5c(c4)NC(=O)CS5)C(=O)O3)c2)c1` [Example 13, 6-((R)-5-{2-[3-(5-methoxy-pyridin-3-yl)-benzylamino]-ethyl}-2-oxo-oxazolidin-3-yl)-4H-benzo[1,4]thiazin-3-one], for which the MIC was 0.063 µg/mL (≈ 0.128 µM) in assay [1]; 0.125 µg/mL (≈ 0.255 µM) in assay [2]; 0.063 µg/mL (≈ 0.128 µM) in assay [3]; no more than 0.016 µg/mL in assay [4]; 1 µg/mL (≈ 2.04 µM) in assay [5].
Regarding `COc1ccnc(-c2cccc(CNCC[C@@H]3CN(c4ccc5c(c4)NC(=O)CS5)C(=O)O3)c2)c1` [Example 14, 6-((R)-5-{2-[3-(4-methoxy-pyridin-2-yl)-benzylamino]-ethyl}-2-oxo-oxazolidin-3-yl)-4H-benzo[1,4]thiazin-3-one], the MIC was 0.125 µg/mL (≈ 0.255 µM) in assay [1]; 0.25 µg/mL (≈ 0.51 µM) in assay [2]; 0.125 µg/mL (≈ 0.255 µM) in assay [3]; no more than 0.016 µg/mL in assay [4]; 2 µg/mL (≈ 4.08 µM) in assay [5].
